For assay [1], the target named is nicotinic receptors (rat brain membranes). As to conditions: read-out: 3H-MCC Binding IC50.
For assay [2] the target is unchanged. The assay is classed as binding. As to conditions: read-out: 3H-Nicotine Binding IC50.
Assay [3] has as its system rats. On the set-up: species or system Sprague-Dawley male rats; Blockade of (nicotine-induced prostration) EC50: unit not given here. As to conditions: rat, in vivo.
The subject of assay [4] is nicotinic receptors (rat brain membranes). Type of assay: binding. As to conditions: for IC50: pH 7, read-out: [3H]-MCC IC50.
The test system is the same in assay [5]. Type of assay: binding.
Assay [6] deals with rats. As to conditions: rat, in vivo.
The test system of assay [7] is nicotinic receptors (rat brain membranes). Type of assay: binding. As to conditions: for IC50: pH 7, read-out: [3H]-nicotine IC50; for Kd: read-out: Kd value in competition binding.
The subject of assay [8] is rats. As to conditions: rat, in vivo. The source holds these as a separate data set.
Assay [9] deals with rats. As to conditions: rat, in vivo. The source holds these as a separate data set.

Entries after “also recorded” stand apart in the source; their conditions may differ. Where two headings read alike, the source gives them in different places.

By IC50 is commonly meant the midpoint of a concentration-inhibition curve. Turning to `CN(C)CCOC(=S)Nc1ccccc1` [DMAE phenylthiocarbamate], the half-maximal inhibitory concentration (IC50) in assay [1] stood at 20 µM; in [2] it was 70 µM.
With `CCN(CC)CC(=O)Nc1c(C)cccc1C` [lidocaine, reference compound], in the assay on rats [3], the “blockade of nicotine-induced prostration / antagonism, in words” value was “inactive”.
As a reminder, the Kd is the constant that tells how readily two partners part at equilibrium. With `[3H]C([3H])([3H])[N+](C)(C)CCOC(=O)NC` [[^3 H]-MCC, [^3 H]-methylcarbamyl choline], the “displaceability of [3H]-MCC binding by muscarinic antagonists” value in assay [4] was “not [^3 H]-MCC binding, is displaceable by low concentrations of muscarinic antagonists; also recorded: not displaceable by muscarinic cholinergic antagonists”. In addition, in assay [5], the “Bmax of [3H]-MCC binding” value was 4.0×10^-14 moles/mg protein; the “Scatchard Kd and Bmax with unlabeled (-)-nicotine replacing MCC, in words” value was “comparable Kd and Bmax values”. Moreover, in assay [5] (brain membranes, pH 7), the “rate constant for association, [3H]-MCC” value came out at 300000 M⁻¹ s⁻¹ and the “rate constant for dissociation, [3H]-MCC” value was 0.001 s⁻¹. In addition, the dissociation constant (Kd) in assay [5] (read-out: Kd (Hill binding constant) of [3H]-MCC) was found to be 0.0009 µM. The Kd in assay [5] (read-out: Kd from rate constants, [3H]-MCC) turned out to be 0.0033 µM. In addition, the Kd in [5] (read-out: Kd, Scatchard analysis of [3H]-MCC binding) was 0.0011 µM.
`CN1C(CC(O)c2ccccc2)CCCC1CC(O)c1ccccc1` (centres unmarked) [lobelanidine, reference compound]: the IC50 in [1] amounted to 0.005 µM; in assay [2], 0.02 µM. Further, the “Blockade of (nicotine-induced prostration) EC50” value in the assay on rats [3] amounted to 25.
On to `CN(C)C(=O)Oc1cccc([N+](C)(C)C)c1` [prostigmin, reference compound], for which the “blockade of nicotine-induced prostration / antagonism, in words” value with rats [3] is “inactive”.
Take `CNC(=O)OCCCN(C)C` [DMAP methylcarbamate]: the values for the IC50 in assay [1] (pH 7.5) and in [2] (pH 7.5) were 0.05 µM and 0.2 µM, respectively. Besides, the “Prostration EC50” value in the assay on rats [6] came to 100.
As for `CCCN1CCCC1c1cccnc1` (centres unmarked) [N'--propyl nornicotine, reference compound], the “decrease in affinity relative to nicotine” value in assay [7] is recorded as 200 fold. In addition, the IC50 in [7] came to 0.6 µM; in assay [1] (pH 7.5), 1 µM; in assay [4], 1 µM; in assay [2] (pH 7.5) it was 0.6 µM. Moreover, the “Prostration EC50” value with rats [6] is recorded as 80.
In the case of `Nc1c2c(nc3ccccc13)CCCC2` [9-aminotetrahydroacridine, reference compound], in the assay with rats [3], the “Blockade of (nicotine-induced prostration) EC50” value turned out to be 200.
Consider `C[N+](C)(C)CCCCCC[N+](C)(C)C` [hexamethonium], for which, in [7], the IC50 was above 100 µM and the Kd was above 100 µM.
For the compound `CN(C)CCOC(N)=O` [DMAE carbamate], the IC50 in assay [7], in [1] (pH 7.5), in assay [4] and in assay [2] (pH 7.5) was 10 µM in each case. Moreover, the “Prostration EC50” value in the assay with rats [6] is 400. In addition, in the assay with rats [6], the “behavioral effect, in words” value is listed as “only a similar effect”.
Consider `CN(C)CCOC(=O)Nc1ccccc1` [DMAE phenylcarbamate], for which the 50% inhibitory concentration (IC50) in assay [1] and in [2] was 100 µM throughout.
In the case of `CN1CCCC(OC(=O)c2ccccc2)C1` (centres unmarked) [N--methyl-3-piperdyl benzoate], the half-maximal inhibitory concentration (IC50) in [1] was found to be 20 µM; in assay [2], 30 µM. The “Blockade of (nicotine-induced prostration) EC50” value with rats [3] is 300.
Take `C[N+](C)(C)CCOC(=O)CCC(=O)OCC[N+](C)(C)C` [TMAE succinate, succinylcholine]: the “Prostration EC50” value in the assay with rats [6] was 50.
For `CNC(=O)Oc1ccc2c(c1)[C@]1(C)CCN(C)[C@@H]1N2C` [physostigmin, reference compound], the “blockade of nicotine-induced prostration / antagonism, in words” value with rats [3] was “inactive”.
Turning to `CCN1CCCC1c1cccnc1` (centres unmarked) [N'--ethyl nornicotine, reference compound], the “decrease in affinity relative to nicotine” value in assay [7] was 3 fold. Also, the 50% inhibitory concentration (IC50) is 0.03 µM in assay [7], 0.1 µM in [1] (pH 7.5), 0.1 µM in assay [4] and 0.03 µM in assay [2] (pH 7.5). In addition, the “Prostration EC50” value in the assay with rats [6] worked out at 20.
In the case of `C[N+](C)(C)CCOC(N)=O` [carbamylcholine], in the assay with rats [6], the “Prostration EC50” value amounted to 100.
On to `CC(=O)OCC[N+](C)(C)C` [acetylcholine], for which the “Prostration EC50” value with rats [6] was found to be 300. In addition, the “psychotropic action (prostration), in words” value in the assay with rats [8] was “inactive”.
For the compound N--benzylpiperidyl-methylcarbamate, the 50% inhibitory concentration (IC50) in assay [1] and in assay [2] was above 100 µM in each case.
Regarding `CN(C)CCOC(=O)CCC(=O)OCCN(C)C` [DMAE succinate], the IC50 worked out at 60 µM in assay [1] (pH 7.5) and 50 µM in [2] (pH 7.5). Moreover, the “Prostration EC50” value with rats [6] turned out to be 1000.
With `CCN(CC)CCOC(=O)c1ccc(N)cc1` [procaine, reference compound], the “blockade of nicotine-induced prostration / antagonism, in words” value with rats [3] is reported as “effectively block nicotine-induced prostration; also recorded: antagonists”.
`CNC(=O)OC1CCN(Cc2ccccc2)CC1` [N--benzyl-4-piperdyl methylcarbamate]: the concentration for half-maximal inhibition (IC50) in [1] and in [2] was above 100 µM each time.
Regarding α-bungarotoxin, in [7], the IC50 is above 100 µM and the Kd is above 100 µM. Moreover, the IC50 in [4] was above 100 µM.
With `CN(C)CCOC(=O)C1CCCCC1` [DMAE cyclohexylcarboxylate, dimethylaminoethyl cyclohexylcarboxylate], in [1], the IC50 came out at 4 µM. Further, the “Blockade of (nicotine-induced prostration) EC50” value with rats [3] worked out at 100. Moreover, in the assay on rats [9], the “% Antagonism (seizures)” value was found to be 50%; the Seizures is listed as 4/8; the “seizures, in words” value is “about half of the rats exhibited seizures”. Also, the IC50 in assay [2] is 2 µM.
For `COc1ccc(CC2c3cc(OC)c(OC)cc3CCN2C)cc1OC` (centres unmarked) [N--methyltetrahydro papavarine, reference compound], the IC50 in assay [1] was determined as 80 µM; in [2], 70 µM.
Consider `CC(=O)OCCN(C)C` [DMAE acetate], for which the IC50 in [1] (pH 7.5) and in assay [2] (pH 7.5) was 50 µM each time. The “Prostration EC50” value in the assay on rats [6] is above 1000.
Regarding `CN(C)CCOC(=O)c1cccnc1` [DMAE nicotinate], the IC50 in assay [1] came out at 0.2 µM. Besides, in the assay on rats [3], the “Blockade of (nicotine-induced prostration) EC50” value was found to be 50; the “blockade of nicotine-induced prostration / antagonism, in words” value is “next in effectiveness and of comparable activity; also recorded: antagonistic to the nicotine-induced prostration”. Further, the IC50 in assay [2] stood at 0.2 µM.
Take `CN(C)c1cccnc1` [3-dimethylaminopyridine]: in the assay on rats [6], the “agonist or inactive on prostration, in words” value is on record as “agonists”.
Take `O=c1cccc2n1C[C@@H]1CNC[C@H]2C1` [cytisine, reference compound]: the results for the half-inhibitory concentration (IC50) in assay [1] (pH 7.5) and in assay [2] (pH 7.5) were 0.0001 µM and 0.006 µM, respectively. Besides, in the assay with rats [6], the “Prostration EC50” value is on record as 2.
Take `C[N+](C)(C)CCOC(=O)Cc1ccccc1` [TMAE phenylacetate]: the concentration for half-maximal inhibition (IC50) in assay [1] worked out at 0.3 µM; in assay [2], 2 µM. Besides, the “Blockade of (nicotine-induced prostration) EC50” value with rats [3] is 100. The “blockade of nicotine-induced prostration / antagonism, in words” value in the assay on rats [3] was “next in effectiveness and of comparable activity”.
As to `CN1[C@@H](CC(=O)c2ccccc2)CCC[C@H]1CC(=O)c1ccccc1` [lobelanine, reference compound], the values for the half-maximal inhibitory concentration (IC50) in assay [1] and in assay [2] were 0.005 µM and 0.01 µM, respectively. Further, the “Blockade of (nicotine-induced prostration) EC50” value with rats [3] was determined as 25.
Turning to `CNC(=O)OCCN(C)C` [DMAE methylcarbamate, dimethylaminoethylmethylcarbamate], the half-inhibitory concentration (IC50) is 0.5 µM in [7], 0.8 µM in [1] (pH 7.5), 0.8 µM in [4] and 0.5 µM in assay [2] (pH 7.5). Further, the “Prostration EC50” value in the assay on rats [6] is given as 300. Moreover, the “behavioral effect, in words” value in the assay on rats [6] is “moderate weakness in the hindlimbs and head”.

The values above are taken from patent US4835162A (priority 1987, dated 1989).
